BindingDB's records for doi:10.7270/Q2668BMS (Burnham Center For Chemical Genomics, 2010)
Where “and” joins values, the source holds several entries; their conditions need not be identical. Identical values can stand only once.

molecular target: T1, Amyloid-beta A4 precursor protein-binding family A member 1 (Rattus norvegicus, UniProt O35430); test: disruptors of Mint-PDZ/N-type channel peptide interaction – biochemical, HTRF, set 2, SAR follow-up (AID 434980)
T1 sequence (O35430 whole entry): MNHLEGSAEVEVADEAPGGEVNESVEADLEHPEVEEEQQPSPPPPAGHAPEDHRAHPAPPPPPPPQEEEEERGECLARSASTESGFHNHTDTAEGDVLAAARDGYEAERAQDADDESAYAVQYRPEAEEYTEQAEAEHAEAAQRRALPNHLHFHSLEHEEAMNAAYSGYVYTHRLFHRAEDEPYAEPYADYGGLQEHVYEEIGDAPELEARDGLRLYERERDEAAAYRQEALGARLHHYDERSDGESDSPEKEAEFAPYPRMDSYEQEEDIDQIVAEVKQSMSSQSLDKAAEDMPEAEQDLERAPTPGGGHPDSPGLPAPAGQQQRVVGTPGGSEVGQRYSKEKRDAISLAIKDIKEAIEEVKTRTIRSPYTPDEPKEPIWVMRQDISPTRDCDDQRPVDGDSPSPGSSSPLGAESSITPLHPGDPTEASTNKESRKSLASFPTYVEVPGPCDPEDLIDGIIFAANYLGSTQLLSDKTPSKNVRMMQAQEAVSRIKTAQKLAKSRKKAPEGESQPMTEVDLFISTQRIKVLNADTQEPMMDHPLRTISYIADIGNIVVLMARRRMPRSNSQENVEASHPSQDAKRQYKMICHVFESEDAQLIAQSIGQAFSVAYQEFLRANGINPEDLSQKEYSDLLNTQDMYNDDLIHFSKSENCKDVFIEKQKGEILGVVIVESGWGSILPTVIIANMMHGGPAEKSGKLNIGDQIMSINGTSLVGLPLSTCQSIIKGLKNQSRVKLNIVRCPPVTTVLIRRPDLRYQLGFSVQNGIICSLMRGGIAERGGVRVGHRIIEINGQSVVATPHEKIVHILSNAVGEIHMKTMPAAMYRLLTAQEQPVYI

IC50	Compound
> 56.8 µM	CC12C=CC(C)(O1)c1c2c(O)n(-c2ccc3c(c2)OCO3)c1O
9.86 µM and 9.63 µM	CC(=O)Oc1cccc(-n2c(O)c3c(c2O)C2(C)C=CC3(C)O2)c1
> 56.8 µM	CC12C=CC(C)(O1)c1c2c(O)n(-c2ccc(Cl)cc2)c1O
> 56.8 µM	Cc1ccc(-n2c(O)c3c(c2O)C2(C)C=CC3(C)O2)cc1
8.89 µM	CC12C=CC(C)(O1)c1c2c(O)n(-c2ccc(F)cc2)c1O [2-(4-fluorophenyl)-4,7-dimethyl-3a,7a-dihydro-octahydro-1H-4,7-epoxyisoindole-1,3-dione]
8.93 µM	Cc1cccc(-n2c(O)c3c(c2O)C2(C)C=CC3(C)O2)c1 [4,7-dimethyl-2-(3-methylphenyl)-3a,7a-dihydro-octahydro-1H-4,7-epoxyisoindole-1,3-dione]
10.5 µM	CC12C=CC(C)(O1)c1c2c(O)n(-c2ccccc2)c1O [4,7-dimethyl-2-phenyl-3a,7a-dihydro-octahydro-1H-4,7-epoxyisoindole-1,3-dione]
6.39 µM	CC(=O)Oc1ccc(-n2c(O)c3c(c2O)C2(C)C=CC3(C)O2)cc1 [MLS000107813]
> 56.8 µM	COC(=O)c1cc(-n2c(O)c3c(c2O)C2(C)C=CC3(C)O2)ccc1Cl [MLS000107828]
5.7 µM	CCCc1ccc(CC2=C(C(=O)OCC)C(=O)c3ccccc3C2=O)cc1 [MLS000571357]
18.8 µM	CC(=O)Oc1ccc(-n2c(O)c3c(c2O)C2C=CC3O2)cc1 [[4-(1,3-dioxo-3a,4,7,7a-tetrahydro-octahydro-1H-4,7-epoxyisoindol-2-yl)phenyl] acetate]
